# Experimental data published in publication PMC9940855, “First-in-Class Dual Hybrid Carbonic Anhydrase Inhibitors and Transient Receptor Potential Vanilloid 1 Agonists Revert Oxaliplatin-Induced Neuropathy” (Journal of Medicinal Chemistry, 2023).
# Columns and labels:
# hCA IX = target: T1, hCA IX (Homo sapiens, UniProt Q16790); format: biochemical
# T1 construct: made in house
# hCA I = hCA I (Homo sapiens, UniProt P00915); details: read-out: KI hCA I; stopped-flow CO2 hydrase assay; mean from three different assays, errors ±5–10%
# hCA IV = hCA IV (Homo sapiens, UniProt P22748); details: read-out: KI hCA IV; stopped-flow CO2 hydrase assay; mean from three different assays, errors ±5–10%
# hCA VII = hCA VII (Homo sapiens, UniProt P43166); details: read-out: KI hCA VII; stopped-flow CO2 hydrase assay; mean from three different assays, errors ±5–10%
# hCA II = hCA II (Homo sapiens, UniProt P00918); details: read-out: KI hCA II; stopped-flow CO2 hydrase assay; mean from three different assays, errors ±5–10%
# hCA XII = hCA XII (Homo sapiens, UniProt O43570); details: read-out: KI hCA XII; stopped-flow CO2 hydrase assay; mean from three different assays, errors ±5–10%
# hCA XII, sequence (O43570 25-354): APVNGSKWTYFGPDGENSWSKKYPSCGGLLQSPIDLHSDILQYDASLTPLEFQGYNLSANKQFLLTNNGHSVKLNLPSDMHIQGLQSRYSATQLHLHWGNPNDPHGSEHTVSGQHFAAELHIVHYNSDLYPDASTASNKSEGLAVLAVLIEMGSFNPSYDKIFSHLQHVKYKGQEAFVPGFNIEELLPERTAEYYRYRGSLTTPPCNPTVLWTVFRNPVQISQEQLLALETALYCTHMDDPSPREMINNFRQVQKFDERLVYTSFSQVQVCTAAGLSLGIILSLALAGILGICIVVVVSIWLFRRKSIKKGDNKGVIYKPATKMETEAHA
# hCA VII, sequence (P43166 whole entry): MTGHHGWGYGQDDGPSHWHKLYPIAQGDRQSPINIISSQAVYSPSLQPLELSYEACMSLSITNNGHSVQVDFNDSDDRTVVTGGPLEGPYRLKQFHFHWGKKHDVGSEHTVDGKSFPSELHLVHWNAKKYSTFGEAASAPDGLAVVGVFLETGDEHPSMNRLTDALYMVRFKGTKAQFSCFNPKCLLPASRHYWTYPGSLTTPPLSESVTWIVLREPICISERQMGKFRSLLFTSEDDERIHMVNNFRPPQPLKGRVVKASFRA
# hCA IV, sequence (P22748 19-312): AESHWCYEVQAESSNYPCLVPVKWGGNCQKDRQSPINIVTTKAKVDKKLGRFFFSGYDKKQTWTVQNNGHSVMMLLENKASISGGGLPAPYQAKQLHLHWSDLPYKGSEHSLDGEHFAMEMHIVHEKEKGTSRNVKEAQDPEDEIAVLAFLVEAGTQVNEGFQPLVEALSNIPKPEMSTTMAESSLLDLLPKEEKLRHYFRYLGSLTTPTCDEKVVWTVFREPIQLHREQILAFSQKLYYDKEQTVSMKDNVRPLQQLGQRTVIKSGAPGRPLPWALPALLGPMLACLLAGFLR
# hCA I, sequence (P00915 whole entry): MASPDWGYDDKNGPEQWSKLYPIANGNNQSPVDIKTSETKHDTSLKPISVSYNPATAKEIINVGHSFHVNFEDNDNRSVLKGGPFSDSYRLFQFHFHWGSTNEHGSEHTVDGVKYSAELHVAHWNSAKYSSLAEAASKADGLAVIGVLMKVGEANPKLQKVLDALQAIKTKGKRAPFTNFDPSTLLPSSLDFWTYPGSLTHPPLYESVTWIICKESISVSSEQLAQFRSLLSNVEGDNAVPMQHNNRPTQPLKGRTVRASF
SMILES,Ki (hCA IX) [nM],Ki (hCA I) [nM],Ki (hCA IV) [µM],Ki (hCA VII) [nM],Ki (hCA II) [nM],Ki (hCA XII) [nM],"fold more active than its enantiomer, hCA IX (hCA IX)"
"NS(=O)(=O)c1ccc(N2CCC(NC(=O)Nc3ccc(Cl)c(C(F)(F)F)c3)C2)nc1 (stereo in doubt) [10b, (R)-6-(3-(3-(4-Chloro-3-(trifluoromethyl)phenyl)ureido)pyrrolidin-1-yl)pyridine-3-sulfonamide]",77.5,707,8.52,15.6,,,
"NS(=O)(=O)c1ccc(N2CC[C@H](NC(=O)Nc3ccccc3F)C2)nc1 [11b, (S)-6-(3-(3-(2-Fluorophenyl)ureido)pyrrolidin-1-yl)pyridine-3-sulfonamide]",,476,,11.6,,43.9,
"NS(=O)(=O)c1ccc(N2CC[C@H](NC(=O)Nc3ccccc3Cl)C2)nc1 [12b, (S)-6-(3-(3-(2-Chlorophenyl)ureido)pyrrolidin-1-yl)pyridine-3-sulfonamide]",22.9,393,2.03,0.9,,41.7,
"NS(=O)(=O)c1ccc(N2CC[C@H](NC(=O)Nc3ccc(Oc4ccccc4)cc3)C2)nc1 [13b, (S)-6-(3-(3-(4-Phenoxyphenyl)ureido)pyrrolidin-1-yl)pyridine-3-sulfonamide]",89.8,,,52,,89.9,
"NS(=O)(=O)c1ccc(N2CC[C@H](NC(=O)Nc3ccc(Cl)c(Cl)c3)C2)nc1 [14b, (S)-6-(3-(3-(3,4-Dichlorophenyl)ureido)pyrrolidin-1-yl)pyridine-3-sulfonamide]",,,2.53,12.1,556,44.6,
"NS(=O)(=O)c1ccc(N2CC[C@H](NC(=O)Nc3ccc4c(c3)OCCO4)C2)nc1 [15b, (S)-6-(3-(3-(2,3-Dihydrobenzo[b][1,4]dioxin-6-yl)ureido)pyrrolidin-1-yl)pyridine-3-sulfonamide]",82,545,5.73,29.5,400,62.9,
"NS(=O)(=O)c1ccc(N2CC[C@@H](NC(=O)Nc3cc(C(F)(F)F)cc(C(F)(F)F)c3)C2)nc1 [16a, (R)-6-(3-(3-(3,5-Bis(trifluoromethyl)phenyl)ureido)pyrrolidin-1-yl)pyridine-3-sulfonamide]",1440,903,5.16,40.8,,37.9,
"NS(=O)(=O)c1ccc(N2CC[C@H](NC(=O)Nc3cc(C(F)(F)F)cc(C(F)(F)F)c3)C2)nc1 [16b, (S)-6-(3-(3-(3,5-Bis(trifluoromethyl)phenyl)ureido)pyrrolidin-1-yl)pyridine-3-sulfonamide]",54.9,625,2.5,8.3,,9.4,
"NS(=O)(=O)c1ccc(N2CC[C@@H](NC(=S)Nc3ccc(C4c5ccc(O)cc5Oc5cc(O)ccc54)c(C(=O)O)c3)C2)nc1 [17a, (R)-2-(3,6-Dihydroxy-9H-xanthen-9-yl)-5-(3-(1-(5-sulfamoylpyridin-2-yl)pyrrolidin-3-yl)thioureido)benzoic Acid]",32,80.6,0.849,7.8,42.2,3.9,
"NS(=O)(=O)c1ccc(N2CC[C@H](NC(=S)Nc3ccc(C4c5ccc(O)cc5Oc5cc(O)ccc54)c(C(=O)O)c3)C2)nc1 [17b, (S)-2-(3,6-Dihydroxy-9H-xanthen-9-yl)-5-(3-(1-(5-sulfamoylpyridin-2-yl)pyrrolidin-3-yl)thioureido)benzoic Acid]",8.6,91.5,5.22,14.9,42.9,27.8,
"COc1ccccc1NC(=O)N[C@H]1CCN(c2ccc(S(N)(=O)=O)cn2)C1 [18b, (S)-6-(3-(3-(2-Methoxyphenyl)ureido)pyrrolidin-1-yl)pyridine-3-sulfonamide]",61.8,476,7.86,58.8,310,38.5,
"NS(=O)(=O)c1ccc(N2CC[C@H](NC(=O)Nc3c(F)cc(F)cc3Br)C2)nc1 [22b, (S)-6-(3-(3-(2-Bromo-4,6-difluorophenyl)ureido)pyrrolidin-1-yl)pyridine-3-sulfonamide]",,,8.2,14,482,8.2,
"NS(=O)(=O)c1ccc(N2CC[C@@H](NC(=O)NS(=O)(=O)c3ccccc3)C2)nc1 [24a, (R)-6-(3-(3-(Phenylsulfonyl)ureido)pyrrolidin-1-yl)pyridine-3-sulfonamide]",27.5,19.5,0.0366,78.8,513,49.3,
"NS(=O)(=O)c1ccc(N2CC[C@@H](NC(=O)NS(=O)(=O)c3ccccc3Cl)C2)nc1 [25a, (R)-6-(3-(3-((2-Chlorophenyl)sulfonyl)ureido)pyrrolidin-1-yl)pyridine-3-sulfonamide]",9.2,72.3,0.705,30.1,15.4,,
"NS(=O)(=O)c1ccc(N2CC[C@H](NC(=O)NS(=O)(=O)c3ccccc3Cl)C2)nc1 [25b, (S)-6-(3-(3-((2-Chlorophenyl)sulfonyl)ureido)pyrrolidin-1-yl)pyridine-3-sulfonamide]",9.7,89.2,0.911,46.4,38.5,,
"NS(=O)(=O)c1cccc(NC(=S)N[C@H]2CCN(c3cccc([N+](=O)[O-])n3)C2)c1 [38b, (S)-3-(3-(1-(6-Nitropyridin-2-yl)pyrrolidin-3-yl)thioureido)benzenesulfonamide]",1.4,8.7,1.29,15.6,3.9,9.3,over 100 fold
"NS(=O)(=O)c1cccc(NC(=O)N[C@H]2CCN(c3ccc(C(F)(F)F)cn3)C2)c1 [46b, (S)-3-(3-(1-(5-(Trifluoromethyl)pyridin-2-yl)pyrrolidin-3-yl)ureido)benzenesulfonamide]",,306,,,8.9,8.9,

# Other lines, results leading:
Ki (hCA IX) [nM],Ki (hCA I) [nM],Ki (hCA IV) [µM],Ki (hCA VII) [nM],Ki (hCA II) [nM],Ki (hCA XII) [nM],"fold more active than its enantiomer, hCA IX (hCA IX)",SMILES
20.2,,8.24,12.1,187,50.3,,"NS(=O)(=O)c1ccc(N2CC[C@H](NC(=O)Nc3ccc(F)cc3)C2)nc1 [7b, (S)-6-(3-(3-(4-Fluorophenyl)ureido)pyrrolidin-1-yl)pyridine-3-sulfonamide]"
30.8,,3.12,8.6,,39.5,,"NS(=O)(=O)c1ccc(N2CC[C@@H](NC(=S)Nc3ccc(F)cc3)C2)nc1 [8a, (R)-6-(3-(3-(4-Fluorophenyl)thioureido)pyrrolidin-1-yl)pyridine-3-sulfonamide]"
27.3,,2.69,2.6,,35.4,,"NS(=O)(=O)c1ccc(N2CC[C@H](NC(=S)Nc3ccc(F)cc3)C2)nc1 [8b, (S)-6-(3-(3-(4-Fluorophenyl)thioureido)pyrrolidin-1-yl)pyridine-3-sulfonamide]"
25.5,164,3.73,8.5,,59.3,,"NS(=O)(=O)c1ccc(N2CC[C@@H](NC(=S)Nc3ccccc3)C2)nc1 [9a, (R)-6-(3-(3-Phenylthioureido)pyrrolidin-1-yl)pyridine-3-sulfonamide]"
54.1,321,9.48,11.6,,23.4,,"NS(=O)(=O)c1ccc(N2CC[C@H](NC(=S)Nc3ccccc3)C2)nc1 [9b, (S)-6-(3-(3-Phenylthioureido)pyrrolidin-1-yl)pyridine-3-sulfonamide]"
67.5,800,,8.2,525,8.5,,"NS(=O)(=O)c1ccc(N2CC[C@H](NC(=O)Nc3ccc([N+](=O)[O-])cc3)C2)nc1 [19b, (S)-6-(3-(3-(4-Nitrophenyl)ureido)pyrrolidin-1-yl)pyridine-3-sulfonamide]"
,,,,409,44.2,,"NS(=O)(=O)c1ccc(N2CC[C@@H](NC(=O)Nc3ccc(C(F)(F)F)cc3)C2)nc1 [20a, (R)-6-(3-(3-(4-(Trifluoromethyl)phenyl)ureido)pyrrolidin-1-yl)pyridine-3-sulfonamide]"
,,,,35.3,48.7,,"NS(=O)(=O)c1ccc(N2CC[C@H](NC(=O)Nc3ccc(C(F)(F)F)cc3)C2)nc1 [20b, (S)-6-(3-(3-(4-(Trifluoromethyl)phenyl)ureido)pyrrolidin-1-yl)pyridine-3-sulfonamide]"
7.2,68.7,0.843,,31.3,41,,"NS(=O)(=O)c1ccc(N2CC[C@H](NC(=S)Nc3ccccc3F)C2)nc1 [21b, (S)-6-(3-(3-(2-Fluorophenyl)thioureido)pyrrolidin-1-yl)pyridine-3-sulfonamide]"
1.3,54.5,3.2,7.7,4.9,8.8,,"NS(=O)(=O)c1ccc(NC(=S)N[C@H]2CCN(c3cccc([N+](=O)[O-])n3)C2)cc1 [37b, (S)-4-(3-(1-(6-Nitropyridin-2-yl)pyrrolidin-3-yl)thioureido)benzenesulfonamide]"
7.9,413,,14.2,,,,"NS(=O)(=O)c1cccc(NC(=S)N[C@H]2CCN(c3ccc(C(F)(F)F)cn3)C2)c1 [40b, (S)-3-(3-(1-(5-(Trifluoromethyl)pyridin-2-yl)pyrrolidin-3-yl)thioureido)benzenesulfonamide]"
